Tested on: CN0375-F725-PDC KRAS spheroid viability
Test: Anticancer human tumor CN0375-F725-PDC patient-derived colon carcinoma cell line growth inhibition [KRAS2]
Settings: spheroids with HUVEC and MSC; for IC50: curve of first compound; for viability, T/C: stronger effect = lower value
How it was run: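 KRAS-mutant tumor cells were grown as spheroids with HUVEC endothelial cells and human MSCs as stroma. Targeted agents were tested alone and with KRAS pathway inhibitors. Doses started at or near clinical Cmax, or 10 microM, descending half-log.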

[1] = second compound 0.1 µM, first compound 0.0316 µM
[2] = second compound 0.1 µM, first compound 0.1 µM
[3] = second compound 0.1 µM, first compound 0.316 µM
[4] = second compound 0.1 µM, first compound 1 µM
[5] = second compound 0.1 µM, first compound 3.16 µM
[6] = second compound 0.1 µM, first compound 10 µM
[7] = second compound 0.316 µM, first compound 0.0316 µM
[8] = second compound 0.316 µM, first compound 0.1 µM
[9] = second compound 0.316 µM, first compound 0.316 µM
[10] = second compound 0.316 µM, first compound 1 µM
[11] = second compound 0.316 µM, first compound 3.16 µM
[12] = second compound 0.316 µM, first compound 10 µM
[13] = second compound 1 µM, first compound 0.0316 µM
[14] = second compound 1 µM, first compound 0.1 µM
[15] = second compound 1 µM, first compound 0.316 µM
[16] = second compound 1 µM, first compound 1 µM
[17] = second compound 1 µM, first compound 3.16 µM
[18] = second compound 1 µM, first compound 10 µM
[19] = second compound 3.16 µM, first compound 0.0316 µM
[20] = second compound 3.16 µM, first compound 0.1 µM
[21] = second compound 3.16 µM, first compound 0.316 µM
[22] = second compound 3.16 µM, first compound 1 µM
[23] = second compound 3.16 µM, first compound 3.16 µM
[24] = second compound 3.16 µM, first compound 10 µM
[25] = second compound 10 µM, first compound 0.0316 µM
[26] = second compound 10 µM, first compound 0.1 µM
[27] = second compound 10 µM, first compound 0.316 µM
[28] = second compound 10 µM, first compound 1 µM
[29] = second compound 10 µM, first compound 3.16 µM
[30] = second compound 10 µM, first compound 10 µM
[31] = second compound 0.1 µM, first compound 0.00316 µM
[32] = second compound 0.1 µM, first compound 0.01 µM
[33] = second compound 0.316 µM, first compound 0.00316 µM
[34] = second compound 0.316 µM, first compound 0.01 µM
[35] = second compound 1 µM, first compound 0.00316 µM
[36] = second compound 1 µM, first compound 0.01 µM
[37] = second compound 3.16 µM, first compound 0.00316 µM
[38] = second compound 3.16 µM, first compound 0.01 µM
[39] = second compound 10 µM, first compound 0.00316 µM
[40] = second compound 10 µM, first compound 0.01 µM
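Further: spheroids exposed to agents for 7 days.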

SMILES	IC50 (second compound 0.1 µM)	IC50 (second compound 0.316 µM)	IC50 (second compound 1 µM)	IC50 (second compound 3.16 µM)	IC50 (second compound 10 µM)	viability, T/C [1]	viability, T/C [2]	viability, T/C [3]	viability, T/C [4]	viability, T/C [7]	viability, T/C [8]	viability, T/C [9]	viability, T/C [10]	viability, T/C [13]	viability, T/C [14]	viability, T/C [15]	viability, T/C [19]	viability, T/C [20]	viability, T/C [25]	viability, T/C [26]	further results
CC(C)NCC(C(=O)N1CCN(c2ncnc3c2C(C)CC3O)CC1)c1ccc(Cl)cc1 (stereo not given) + CC1OCC2(CCN(c3cnc(Sc4ccnc(N)c4Cl)c(N)n3)CC2)C1N	> 10000 nM	> 10000 nM	> 10000 nM	> 10000 nM	5950 nM	100%	95.9%	94.4%	88.7%	93.6%	93.5%	89.9%	82%	90.5%	88.7%	84.3%	87.4%	83.9%	71.3%	68.3%	viability, T/C [5]: 87.7%; viability, T/C [6]: 71.7%; viability, T/C [11]: 81.6%; viability, T/C [12]: 70.8%; viability, T/C [16]: 74.8%; viability, T/C [17]: 75.9%; viability, T/C [18]: 66.2%; viability, T/C [21]: 76.5%; viability, T/C [22]: 70.3%; viability, T/C [23]: 63.2%; viability, T/C [24]: 56.5%; viability, T/C [27]: 62.3%; viability, T/C [28]: 54.9%; viability, T/C [29]: 56.4%; viability, T/C [30]: 46.3%
CC1(C)CCC(CN2CCN(c3ccc(C(=O)NS(=O)(=O)c4ccc(NCC5CCOCC5)c([N+](=O)[O-])c4)c(Oc4cnc5[nH]ccc5c4)c3)CC2)=C(c2ccc(Cl)cc2)C1 + CC1OCC2(CCN(c3cnc(Sc4ccnc(N)c4Cl)c(N)n3)CC2)C1N	3490 nM	2760 nM	2600 nM	2130 nM	1610 nM	103%	100%	104%	103%	95.4%	100%	94.6%	95.8%	90.7%	91.5%	89.9%	84.4%	87.1%	67.7%	73.2%	viability, T/C [5]: 51.6%; viability, T/C [6]: 31.6%; viability, T/C [11]: 43.8%; viability, T/C [12]: 25.1%; viability, T/C [16]: 86.3%; viability, T/C [17]: 42.5%; viability, T/C [18]: 22.2%; viability, T/C [21]: 87.4%; viability, T/C [22]: 82.8%; viability, T/C [23]: 32.9%; viability, T/C [24]: 13.9%; viability, T/C [27]: 77.2%; viability, T/C [28]: 69.6%; viability, T/C [29]: 22%; viability, T/C [30]: 8.8%
CCN1CCN(Cc2ccc(Nc3ncc(F)c(-c4cc(F)c5nc(C)n(C(C)C)c5c4)n3)nc2)CC1 + CC1OCC2(CCN(c3cnc(Sc4ccnc(N)c4Cl)c(N)n3)CC2)C1N	> 1000 nM	> 1000 nM	> 1000 nM	> 1000 nM	> 1000 nM	81.4%	88.2%	95.7%	92.8%	67.3%	74.6%	89.3%	84.9%	72.6%	75.2%	82.9%	68.1%	66.6%	60.4%	61.1%	viability, T/C [31]: 92.9%; viability, T/C [32]: 83.3%; viability, T/C [33]: 84.9%; viability, T/C [34]: 82.2%; viability, T/C [35]: 82.3%; viability, T/C [36]: 80%; viability, T/C [16]: 81.7%; viability, T/C [37]: 72.2%; viability, T/C [38]: 74.8%; viability, T/C [21]: 75.1%; viability, T/C [22]: 68.8%; viability, T/C [39]: 65.8%; viability, T/C [40]: 69.3%; viability, T/C [27]: 70.4%; viability, T/C [28]: 53.3%
CCNC(=O)CC1N=C(c2ccc(Cl)cc2)c2cc(OC)ccc2-n2c(C)nnc21 (stereo not given) + CC1OCC2(CCN(c3cnc(Sc4ccnc(N)c4Cl)c(N)n3)CC2)C1N	7510 nM	4630 nM	3690 nM	2610 nM	1460 nM	92.8%	88.3%	79.4%	72.6%	88%	78.9%	68.5%	69.7%	85.2%	78.2%	70.5%	79.4%	73.6%	72.3%	73.8%	viability, T/C [5]: 60.8%; viability, T/C [6]: 46.1%; viability, T/C [11]: 58.8%; viability, T/C [12]: 37.3%; viability, T/C [16]: 66.5%; viability, T/C [17]: 51.6%; viability, T/C [18]: 37%; viability, T/C [21]: 62.2%; viability, T/C [22]: 61.9%; viability, T/C [23]: 48.3%; viability, T/C [24]: 36.8%; viability, T/C [27]: 60.7%; viability, T/C [28]: 53%; viability, T/C [29]: 45%; viability, T/C [30]: 36.9%
Cn1ncnc1[C@H]1c2n[nH]c(=O)c3cc(F)cc(c23)N[C@@H]1c1ccc(F)cc1 + CC1OCC2(CCN(c3cnc(Sc4ccnc(N)c4Cl)c(N)n3)CC2)C1N	> 100 nM	> 100 nM	> 100 nM	> 100 nM	> 100 nM	99.2%	90.3%			92.5%	81%			82.1%	80%		75.5%	78.2%	61.1%	61.2%	viability, T/C (second compound 0.1 µM, first compound 0.000316 µM): 103%; viability, T/C (second compound 0.1 µM, first compound 0.001 µM): 95.2%; viability, T/C [31]: 93.4%; viability, T/C [32]: 91.6%; viability, T/C (second compound 0.316 µM, first compound 0.000316 µM): 97.5%; viability, T/C (second compound 0.316 µM, first compound 0.001 µM): 87.3%; viability, T/C [33]: 87.8%; viability, T/C [34]: 85.2%; viability, T/C (second compound 1 µM, first compound 0.000316 µM): 88.4%; viability, T/C (second compound 1 µM, first compound 0.001 µM): 89.5%; viability, T/C [35]: 83.5%; viability, T/C [36]: 86.3%; viability, T/C (second compound 3.16 µM, first compound 0.000316 µM): 79.5%; viability, T/C (second compound 3.16 µM, first compound 0.001 µM): 80.4%; viability, T/C [37]: 81%; viability, T/C [38]: 76.3%; viability, T/C (second compound 10 µM, first compound 0.000316 µM): 70.9%; viability, T/C (second compound 10 µM, first compound 0.001 µM): 72.7%; viability, T/C [39]: 67.2%; viability, T/C [40]: 63.9%

— PubChem BioAssay AID1963860 (Molecular Pharmacology Branch, DTP, NCI, 2024)
